# Measurements: the NIST ThermoML archive (doi:10.1021/acs.jced.6b00121)
# Values joined by “and” are separate entries in the source; they are usually repeats but may differ in a detail not shown here. Identical values can stand only once. Numbers after ± are expanded uncertainties.
# Conditions: 283.15 K; 100 kPa; Liquid; Falling or rolling sphere viscometry
row,Compound,viscosity [mPa·s]
1,CCCCO [butan-1-ol],4.046 ± 0.051
2,CCCCCCO [hexan-1-ol],7.487 ± 0.1
3,CCCCCO [pentan-1-ol],5.431 ± 0.074
4,CCCO [propan-1-ol],2.834 ± 0.036
5,CCCCCCCCCCC [undecane],1.371 ± 0.018

# Same assay, conditions: 283.15 K; 100 kPa; Liquid; Vibrating tube method
row,Compound,mass density [kg/m3]
1,CCCCO [butan-1-ol],817.07 ± 1.6
2,CCCCCCO [hexan-1-ol],825.94 ± 1.7
3,CCCCCO [pentan-1-ol],821.9 ± 1.7
4,CCCO [propan-1-ol],811.48 ± 1.6
5,CCCCCCCCCCC [undecane],747.78 ± 1.5

# Same assay, conditions: 288.15 K; 100 kPa; Liquid; Falling or rolling sphere viscometry
row,Compound,viscosity [mPa·s]
1,CCCCO [butan-1-ol],3.514 ± 0.044
2,CCCCCCO [hexan-1-ol],6.307 ± 0.086
3,CCCCCO [pentan-1-ol],4.655 ± 0.063
4,CCCO [propan-1-ol],2.489 ± 0.031
5,CCCCCCCCCCC [undecane],1.249 ± 0.017

# Same assay, conditions: 288.15 K; 100 kPa; Liquid; Vibrating tube method
row,Compound,mass density [kg/m3]
1,CCCCO [butan-1-ol],813.32 ± 1.6
2,CCCCCCO [hexan-1-ol],822.42 ± 1.7
3,CCCCCO [pentan-1-ol],818.3 ± 1.6
4,CCCO [propan-1-ol],807.54 ± 1.6
5,CCCCCCCCCCC [undecane],744.06 ± 1.5

# Same assay, conditions: 293.15 K; 100 kPa; Liquid; Falling or rolling sphere viscometry
row,Compound,viscosity [mPa·s]
1,CCCCO [butan-1-ol],3.066 ± 0.039
2,CCCCCCO [hexan-1-ol],5.348 ± 0.073
3,CCCCCO [pentan-1-ol],4.011 ± 0.054
4,CCCO [propan-1-ol],2.195 ± 0.028
5,CCCCCCCCCCC [undecane],1.145 ± 0.015

# Same assay, conditions: 293.15 K; 100 kPa; Liquid; Vibrating tube method
row,Compound,mass density [kg/m3]
1,CCCCO [butan-1-ol],809.55 ± 1.6
2,CCCCCCO [hexan-1-ol],818.88 ± 1.6
3,CCCCCO [pentan-1-ol],814.68 ± 1.6
4,CCCO [propan-1-ol],803.58 ± 1.6
5,CCCCCCCCCCC [undecane],740.35 ± 1.5

# Same assay, conditions: 298.15 K; 100 kPa; Liquid; Falling or rolling sphere viscometry
row,Compound,viscosity [mPa·s]
1,CCCCO [butan-1-ol],2.59 ± 0.033
2,CCCCCCO [hexan-1-ol],4.555 ± 0.062
3,CCCCCO [pentan-1-ol],3.474 ± 0.047
4,CCCO [propan-1-ol],1.929 ± 0.024
5,CCCCCCCCCCC [undecane],1.062 ± 0.014

# Same assay, conditions: 298.15 K; 100 kPa; Liquid; Vibrating tube method
row,Compound,mass density [kg/m3]
1,CCCCO [butan-1-ol],805.76 ± 1.6
2,CCCCCCO [hexan-1-ol],815.32 ± 1.6
3,CCCCCO [pentan-1-ol],811.03 ± 1.6
4,CCCO [propan-1-ol],799.59 ± 1.6
5,CCCCCCCCCCC [undecane],736.64 ± 1.5

# Same assay, conditions: 303.15 K; 100 kPa; Liquid; Falling or rolling sphere viscometry
row,Compound,viscosity [mPa·s]
1,CCCCO [butan-1-ol],2.28 ± 0.029
2,CCCCCCO [hexan-1-ol],3.903 ± 0.053
3,CCCCCO [pentan-1-ol],3.023 ± 0.041
4,CCCO [propan-1-ol],1.714 ± 0.022
5,CCCCCCCCCCC [undecane],0.982 ± 0.013

# Same assay, conditions: 303.15 K; 100 kPa; Liquid; Vibrating tube method
row,Compound,mass density [kg/m3]
1,CCCCO [butan-1-ol],801.94 ± 1.6
2,CCCCCCO [hexan-1-ol],811.74 ± 1.6
3,CCCCCO [pentan-1-ol],807.37 ± 1.6
4,CCCO [propan-1-ol],795.58 ± 1.6
5,CCCCCCCCCCC [undecane],732.93 ± 1.5

# Same assay, conditions: 308.15 K; 100 kPa; Liquid; Falling or rolling sphere viscometry
row,Compound,viscosity [mPa·s]
1,CCCCO [butan-1-ol],2.015 ± 0.025
2,CCCCCCO [hexan-1-ol],3.361 ± 0.046
3,CCCCCO [pentan-1-ol],2.642 ± 0.036
4,CCCO [propan-1-ol],1.536 ± 0.019
5,CCCCCCCCCCC [undecane],0.91 ± 0.012

# Same assay, conditions: 308.15 K; 100 kPa; Liquid; Vibrating tube method
row,Compound,mass density [kg/m3]
1,CCCCO [butan-1-ol],798.09 ± 1.6
2,CCCCCCO [hexan-1-ol],808.13 ± 1.6
3,CCCCCO [pentan-1-ol],803.67 ± 1.6
4,CCCO [propan-1-ol],791.53 ± 1.6
5,CCCCCCCCCCC [undecane],729.23 ± 1.5

# Same assay, conditions: 313.15 K; 100 kPa; Liquid; Falling or rolling sphere viscometry
row,Compound,viscosity [mPa·s]
1,CCCCO [butan-1-ol],1.786 ± 0.022
2,CCCCCCO [hexan-1-ol],2.912 ± 0.039
3,CCCCCO [pentan-1-ol],2.32 ± 0.031
4,CCCO [propan-1-ol],1.372 ± 0.017
5,CCCCCCCCCCC [undecane],0.847 ± 0.011

# Same assay, conditions: 313.15 K; 100 kPa; Liquid; Vibrating tube method
row,Compound,mass density [kg/m3]
1,CCCCO [butan-1-ol],794.2 ± 1.6
2,CCCCCCO [hexan-1-ol],804.5 ± 1.6
3,CCCCCO [pentan-1-ol],799.94 ± 1.6
4,CCCO [propan-1-ol],787.44 ± 1.6
5,CCCCCCCCCCC [undecane],725.53 ± 1.5

# Same assay, conditions: 318.15 K; 100 kPa; Liquid; Falling or rolling sphere viscometry
row,Compound,viscosity [mPa·s]
1,CCCCO [butan-1-ol],1.589 ± 0.02
2,CCCCCCO [hexan-1-ol],2.538 ± 0.034
3,CCCCCO [pentan-1-ol],2.045 ± 0.028
4,CCCO [propan-1-ol],1.229 ± 0.015
5,CCCCCCCCCCC [undecane],0.79 ± 0.01

# Same assay, conditions: 318.15 K; 100 kPa; Liquid; Vibrating tube method
row,Compound,mass density
1,CCCCO [butan-1-ol],790.27 ± 1.6 kg/m3
2,CCCCCCO [hexan-1-ol],800.83 ± 1.6 kg/m3
3,CCCCCO [pentan-1-ol],796.17 ± 1.6 kg/m3
4,CCCO [propan-1-ol],783.304 ± 1.6 kg/m3
5,CCCCCCCCCCC [undecane],721.82 ± 1.5 kg/m3 and 721.818 ± 1.5 kg/m3

# Same assay, conditions: 323.15 K; 100 kPa; Liquid; Falling or rolling sphere viscometry
row,Compound,viscosity [mPa·s]
1,CCCCO [butan-1-ol],1.427 ± 0.018
2,CCCCCCO [hexan-1-ol],2.228 ± 0.03
3,CCCCCO [pentan-1-ol],1.81 ± 0.024
4,CCCO [propan-1-ol],1.113 ± 0.014
5,CCCCCCCCCCC [undecane],0.74 ± 0.0099

# Same assay, conditions: 323.15 K; 100 kPa; Liquid; Vibrating tube method
row,Compound,mass density [kg/m3]
1,CCCCO [butan-1-ol],786.3 ± 1.6
2,CCCCCCO [hexan-1-ol],797.12 ± 1.6
3,CCCCCO [pentan-1-ol],792.36 ± 1.6
4,CCCO [propan-1-ol],779.11 ± 1.6
5,CCCCCCCCCCC [undecane],718.11 ± 1.5

# Same assay, conditions: 328.15 K; 100 kPa; Liquid; Falling or rolling sphere viscometry
row,Compound,viscosity [mPa·s]
1,CCCCO [butan-1-ol],1.278 ± 0.016
2,CCCCCCO [hexan-1-ol],1.97 ± 0.027
3,CCCCCO [pentan-1-ol],1.608 ± 0.022
4,CCCO [propan-1-ol],1.002 ± 0.013
5,CCCCCCCCCCC [undecane],0.692 ± 0.0092

# Same assay, conditions: 328.15 K; 100 kPa; Liquid; Vibrating tube method
row,Compound,mass density [kg/m3]
1,CCCCO [butan-1-ol],782.27 ± 1.6
2,CCCCCCO [hexan-1-ol],793.37 ± 1.6
3,CCCCCO [pentan-1-ol],788.5 ± 1.6
4,CCCO [propan-1-ol],774.86 ± 1.6
5,CCCCCCCCCCC [undecane],714.39 ± 1.4

# Same assay, conditions: 333.15 K; 100 kPa; Liquid; Falling or rolling sphere viscometry
row,Compound,viscosity [mPa·s]
1,CCCCO [butan-1-ol],1.147 ± 0.014
2,CCCCCCO [hexan-1-ol],1.744 ± 0.023
3,CCCCCO [pentan-1-ol],1.434 ± 0.019
4,CCCO [propan-1-ol],0.905 ± 0.011
5,CCCCCCCCCCC [undecane],0.651 ± 0.0087

# Same assay, conditions: 333.15 K; 100 kPa; Liquid; Vibrating tube method
row,Compound,mass density [kg/m3]
1,CCCCO [butan-1-ol],778.18 ± 1.6
2,CCCCCCO [hexan-1-ol],789.57 ± 1.6
3,CCCCCO [pentan-1-ol],784.59 ± 1.6
4,CCCO [propan-1-ol],770.54 ± 1.5
5,CCCCCCCCCCC [undecane],710.68 ± 1.4

# Same assay, conditions: 338.15 K; 100 kPa; Liquid; Falling or rolling sphere viscometry
row,Compound,viscosity [mPa·s]
1,CCCCO [butan-1-ol],1.032 ± 0.013
2,CCCCCCO [hexan-1-ol],1.553 ± 0.021
3,CCCCCO [pentan-1-ol],1.283 ± 0.017
4,CCCO [propan-1-ol],0.819 ± 0.01
5,CCCCCCCCCCC [undecane],0.615 ± 0.0082

# Same assay, conditions: 338.15 K; 100 kPa; Liquid; Vibrating tube method
row,Compound,mass density [kg/m3]
1,CCCCO [butan-1-ol],774.03 ± 1.6
2,CCCCCCO [hexan-1-ol],785.72 ± 1.6
3,CCCCCO [pentan-1-ol],780.62 ± 1.6
4,CCCO [propan-1-ol],766.15 ± 1.5
5,CCCCCCCCCCC [undecane],706.95 ± 1.4

# Same assay, conditions: 343.15 K; 100 kPa; Liquid; Falling or rolling sphere viscometry
row,Compound,viscosity [mPa·s]
1,CCCCO [butan-1-ol],0.934 ± 0.012
2,CCCCCCO [hexan-1-ol],1.39 ± 0.019
3,CCCCCO [pentan-1-ol],1.152 ± 0.015
4,CCCO [propan-1-ol],0.752 ± 0.0094
5,CCCCCCCCCCC [undecane],0.58 ± 0.0077

# Same assay, conditions: 343.15 K; 100 kPa; Liquid; Vibrating tube method
row,Compound,mass density [kg/m3]
1,CCCCO [butan-1-ol],769.8 ± 1.5
2,CCCCCCO [hexan-1-ol],781.83 ± 1.6
3,CCCCCO [pentan-1-ol],776.58 ± 1.6
4,CCCO [propan-1-ol],761.67 ± 1.5
5,CCCCCCCCCCC [undecane],703.22 ± 1.4

# Same assay, conditions: 348.15 K; 100 kPa; Liquid; Falling or rolling sphere viscometry
row,Compound,viscosity [mPa·s]
1,CCCCO [butan-1-ol],0.842 ± 0.011
2,CCCCCCO [hexan-1-ol],1.255 ± 0.017
3,CCCCCO [pentan-1-ol],1.038 ± 0.014
4,CCCO [propan-1-ol],0.685 ± 0.0086
5,CCCCCCCCCCC [undecane],0.549 ± 0.0073

# Same assay, conditions: 348.15 K; 100 kPa; Liquid; Vibrating tube method
row,Compound,mass density [kg/m3]
1,CCCCO [butan-1-ol],765.49 ± 1.5
2,CCCCCCO [hexan-1-ol],777.86 ± 1.6
3,CCCCCO [pentan-1-ol],772.49 ± 1.6
4,CCCO [propan-1-ol],757.09 ± 1.5
5,CCCCCCCCCCC [undecane],699.47 ± 1.4

# Same assay, conditions: 353.15 K; 100 kPa; Liquid; Falling or rolling sphere viscometry
row,Compound,viscosity [mPa·s]
1,CCCCO [butan-1-ol],0.762 ± 0.01
2,CCCCCCO [hexan-1-ol],1.125 ± 0.015
3,CCCCCO [pentan-1-ol],0.939 ± 0.013
4,CCCO [propan-1-ol],0.625 ± 0.0078
5,CCCCCCCCCCC [undecane],0.522 ± 0.007

# Same assay, conditions: 353.15 K; 100 kPa; Liquid; Vibrating tube method
row,Compound,mass density [kg/m3]
1,CCCCO [butan-1-ol],761.12 ± 1.5
2,CCCCCCO [hexan-1-ol],773.86 ± 1.6
3,CCCCCO [pentan-1-ol],768.33 ± 1.6
4,CCCO [propan-1-ol],752.44 ± 1.5
5,CCCCCCCCCCC [undecane],695.72 ± 1.4

# Same assay, conditions: 358.15 K; 100 kPa; Liquid; Falling or rolling sphere viscometry
row,Compound,viscosity [mPa·s]
1,CCCCO [butan-1-ol],0.693 ± 0.009
2,CCCCCCO [hexan-1-ol],1.018 ± 0.014
3,CCCCCO [pentan-1-ol],0.852 ± 0.011
